The text below walks through data of ChEMBL document CHEMBL5728770, “Heterocycle comprising tyrosine kinase inhibitors” (2021).

Each structure is given as a SMILES string.

Sequence of Tyrosine-protein kinase BTK (Q06187 whole entry): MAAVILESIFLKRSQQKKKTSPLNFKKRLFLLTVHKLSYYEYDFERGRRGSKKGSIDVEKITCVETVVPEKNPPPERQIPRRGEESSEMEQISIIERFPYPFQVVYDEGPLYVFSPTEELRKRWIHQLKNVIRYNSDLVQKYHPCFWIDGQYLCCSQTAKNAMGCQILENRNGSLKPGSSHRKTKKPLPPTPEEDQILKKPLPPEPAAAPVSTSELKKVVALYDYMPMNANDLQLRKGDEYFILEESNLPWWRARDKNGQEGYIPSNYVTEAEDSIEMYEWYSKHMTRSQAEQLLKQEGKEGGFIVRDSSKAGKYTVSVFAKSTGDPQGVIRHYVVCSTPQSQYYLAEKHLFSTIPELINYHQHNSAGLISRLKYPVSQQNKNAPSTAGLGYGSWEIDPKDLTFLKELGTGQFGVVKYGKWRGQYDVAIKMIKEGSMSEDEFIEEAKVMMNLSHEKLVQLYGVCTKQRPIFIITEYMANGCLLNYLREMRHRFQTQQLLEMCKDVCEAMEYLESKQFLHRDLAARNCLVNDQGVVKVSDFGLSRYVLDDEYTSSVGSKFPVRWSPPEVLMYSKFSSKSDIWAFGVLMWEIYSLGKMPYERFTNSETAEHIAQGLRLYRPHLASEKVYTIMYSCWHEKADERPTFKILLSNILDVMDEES

This experiment addresses Tyrosine-protein kinase BTK (Homo sapiens, UniProt Q06187). The experiment is described as follows: Enzymatic Activity Assay: A Caliper-based kinase assay (Caliper Life Sciences, Hopkinton, Mass.) was used to measure inhibition of BTK kinase activity of a compound of the present disclosure. Serial dilutions of test compounds were incubated with human recombinant BTK (0.5 nM), ATP (16 μM) and a phosphoacceptor peptide substrate FAM-GEEPLYWSFPAKKK-NH2 (1 μM) at room temperature for 3 h. The reaction was then terminated with EDTA, final concentration 20 mM and the phosphorylated reaction product was quantified on a Caliper Desktop Profiler (Caliper LabChip 3000). Percent inhibition was calculated for each compound dilution and the concentration that produced 50% inhibition was calculated.
The IC50 is the point on the concentration scale where inhibition reaches its midpoint. For `CN1CCN(C(C)(C)C=C(C#N)C(=O)N2CCC[C@@H](c3nc(-c4ccc(Oc5ccccc5)cc4F)c4c(N)nccn34)C2)CC1=O`, the IC50 is 2.6 nM.

On to `CC(C)(C=C(C#N)C(=O)N1CCC[C@@H](c2nc(-c3ccc(Oc4ccccc4)cc3F)c3c(N)nccn23)C1)N1CCN(C2(C)COC2)CC1`, for which the IC50 is 2.4 nM.

For `Cc1cc(-c2nn([C@@H]3CCCN(C(=O)C(C#N)=CC(C)(C)N4CCN(C5COC5)CC4)C3)c3ccnc(N)c23)ccc1Oc1ccccc1`, the half-inhibitory concentration (IC50) was 1.3 nM.

Consider `CC(C)(C=C(C#N)C(=O)N1CCC[C@@H](n2nc(-c3ccc(C(=O)Nc4ccccn4)cc3)c3c(N)nccc32)C1)N1CCN(C2COC2)CC1`, for which the IC50 was 2.2 nM. Take `CC(C)(C=C(C#N)C(=O)N1CCC[C@@H](n2nc(-c3ccc(Oc4ccccc4)cc3F)c3c(N)nccc32)C1)N1CCN(C2COC2)CC1`: the IC50 was 1.4 nM. On to `CC(C)(C=C(C#N)C(=O)N1CCC[C@@H](n2nc(-c3ccc(Oc4ccccc4)cc3F)c3c(N)ncnc32)C1)N1CCN(C2(C)COC2)CC1`, for which the IC50 is 0.3 nM. `CC(C)(C=C(C#N)C(=O)N1CCC[C@@H](n2nc(-c3ccc(Oc4ccccc4)cc3F)c3c(N)nccc32)C1)C1(C)CCN(C2COC2)CC1`: the IC50 is 45.7 nM. In the case of `CC(C)(C=C(C#N)C(=O)N1CCC[C@@H](n2nc(-c3ccc(Oc4ccccc4)cc3F)c3c(N)nccc32)C1)N1CCN(C2(C)COC2)CC1`, the 50% inhibitory concentration (IC50) was 0.8 nM. With `CC(C)(C=C(C#N)C(=O)N1CCC[C@@H](n2nc(-c3ccc(Oc4ccccc4F)cc3)c3c(N)nccc32)C1)N1CCN(C2COC2)CC1`, the concentration for half-maximal inhibition (IC50) is 2.2 nM.
